The text below walks through data of patent publication US10317393B2, “Alkynyl sugar analogs for labeling and visualization of glycoconjugates in cells” (Academia Sinica, priority 2007, dated 2019).

Molecules are shown by their SMILES.

Series [1] relates to Jurkat cells. In words: Flow cytometry of cell surface labeling after click with biotin azide probe 6 and fluorescein-conjugated streptavidin. In kind it is cell-based, human. Here is the method: In another exemplary implementation, a method for labeling fucosylated glycoconjugates at the cell surface is disclosed. In one aspect, Jurkat cells are grown in the presence of derivatized alkynyl Fuc 1. After treatment, cells are subjected to CuAAC (click chemistry) to couple biotinylated azido probe 6 with any alkynyl Fuc-bearing glycoconjugates, and stained with fluorescein-conjugated streptavidin.
Labeling alkynyl Fuc-bearing cell surface glycoconjugates is illustrated in FIGS. 1A, 1B, 1C and 1D. FIGS. 1A, 1B, 1C and 1D show analysis of cells tagged with Fuc analogs analyzed by monitoring fluorescence intensity with flow cytometry after labeling with a biotin azide probe 6 and staining cells with fluorescein-conjugated streptavidin. […] Without being bound by theory, incorporation of the derivatized Fuc analogs into fucosylated glycoconjugates likely occurs via the Fuc salvage pathway.
It is now disclosed in one exemplary implementation of the disclosure that treating cells with derivatized alkynyl ManNAc 4 results in derivatized alkyne-bearing sialyl glycoconjugates. In one aspect of the method, cells are treated with 4 at various concentrations for one to 3 days. Modified sugar analogs and probes used in this disclosure are shown in Scheme 1. Tagging of the cell surface glycoconjugates by derivatized alkynyl ManNAc is illustrated in FIGS. 2A, 2B, 2C and 2D. FIGS. 2A, 2B, 2C and 2D show analysis of cells labeled with ManNAc analogs analyzed by monitoring fluorescence intensity with flow cytometry after clicking on the biotin azide probe 6 and staining cells with fluorescein-conjugated streptavidin. […] Compared with the MFI of controls, there was significant labeling on cells treated with derivatized alkynyl ManNAc 4, even at concentrations as low as 3 micromolar (15-fold increase). […] The optimal concentration of 4 for tagging sialyl glycoconjugates falls between 25 and 50 micromolar.
(§1) Jurkat cells were cultivated (2×10^6/10 ml) in RPMI medium 1640 supplemented with 10% FCS and various concentrations of peracetylated alkynyl sugars 1, 2, or 4 or native sugars 3 or 5, for 1-3 days at 37° C. Cells were then harvested, washed with 0.1% FCS/PBS, and resuspended (10^6 cells) in 100 microliters of click reaction solution (0.1 mM biotin probe 6 or fluorogenic probe 7/0.1 mM Tris-thiazoleamine catalyst/0.1 mM CuSO4/0.5 mM sodium ascorbate, in PBS). The reaction was incubated at room temperature for 30 min, and then the cells were washed twice with 0.1% FCS/PBS. Cells treated with biotin probe 6 were subsequently stained with fluorescein-conjugated streptavidin (0.5 microgram per sample in 50 microliters of 1% FCS/PBS) for 30 min at 4° C., and washed three times with 1% FCS/PBS. Data were acquired by BD LSR II with FACSDiva software, and were analyzed by CellQuestPro software (BD Biosciences). Detection of fluorescent adduct with probe 7 was monitored with a 408 nm laser and a 440/40 bandpass filter for excitation and emission, respectively.
Background: In flow cytometry, cells or beads pass a laser one at a time.

Series [2] has as its system Jurkat cells. In words: Cell growth analysis after treatment with sugar analogs (cell numbers counted). In kind it is cell-based, human. The conditions noted are these: for toxicity (growth rate): 3 days. The method, then: FIGS. 1A, 1B, 1C and 1D show analysis of cells labeled with Fuc analogs. […] Jurkat cells were grown in the presence of 200 micromolar each Fuc analog for 3 days before cell numbers were counted. The data represent the percentage of treated cells vs. untreated cells (n=4).
It is also disclosed how treatment with exogenous Fuc analog affects cell growth rate. […] In contrast, the addition of 200 micromolar azido Fuc 2 inhibits cell growth considerably, by 65% when compared with the untreated cells. […] Such toxicity may lead to global change in expression, therefore a nontoxic probe is preferable for accurate probing of glycoconjugate expression.
as §1

Series [3] concerns Jurkat cells. In words: Flow cytometry of cell surface labeling with fluorogenic coumarin probe 7. Format: cell-based, human. The conditions noted are these: 200 micromolar Fuc analogs or 25 micromolar ManNAc analogs, 3 days. From the text: FIGS. 3A and 3B show tagging of cell surface glycans by derivatized alkynyl sugar analogs and subsequent labeling with probe 3-azido-7-hydroxycoumarin 7. Shown is flow cytometry analysis of Jurkat cells tagged with 200 micromolar derivatized alkynyl Fuc 1 shown in FIG. 3A or 25 micromolar alkynyl-derivatized ManNAc 4 shown in FIG. 3B for 3 days. The fluorescence intensity was detected after labeling with a coumarin probe 7. Filled histogram, cells treated with control sugar analog 3 or 5; open histogram, cell treated with alkynyl-derivatized sugar 1 or 4.
Recently, another click-activated azido-derivatized fluorescent probe, based on coumarin, was reported in the literature. In one aspect of the disclosure, the fluorogenic probe, 3-azido-7-hydroxycoumarin 7, is used as the coupling partner for alkynyl tags on labeled glycoconjugates.
Jurkat cells were cultivated (2×10^6/10 ml) in RPMI medium 1640 supplemented with 10% FCS and various concentrations of peracetylated alkynyl sugars 1, 2, or 4 or native sugars 3 or 5, for 1-3 days at 37° C. […] Data were acquired by BD LSR II with FACSDiva software, and were analyzed by CellQuestPro software (BD Biosciences). Detection of fluorescent adduct with probe 7 was monitored with a 408 nm laser and a 440/40 bandpass filter for excitation and emission, respectively.

For series [4], the system named is cell extracts. In words: Labeling and detection of glycoconjugates in cell extracts (SDS/PAGE, Western blot). In kind it is cell-based. The note with it: 200 micromolar Fuc or 25 micromolar ManNAc analogs, 3 days. From the text:
Because the herein disclosed labeling system enables the identification of cellular glycoconjugates, it can also serve well in glyco-proteomic applications aimed at discovering unknown glycosylated targets for diagnostic and therapeutic purposes. […] Soluble lysate fractions are labeled with biotin probe 6, fluorogenic probe 7, or a standard azido-derivatized rhodamine probe used in proteomics before separating proteins by SDS/PAGE. […] Positive fluorescent signal was also detected in alkynyl positive protein lysate when labeled with fluorogenic 3-azido-7-hydroxycoumarin 7 and rhodamine probes (FIG. 6B and FIG. 11). […] Moreover, further processing, including a streptavidin/avidin enrichment or gel slice purification, will allow for comparative identification by proteomic mass spectrometry techniques of unknown glycoconjugates expressed at different cell status, for instance, un-differentiated verses differentiated cells, or normal verses cancer cells.
Cells were seeded at 3×10^6/8 ml per 10-cm dish and treated with control and test sugars (200 micromolar Fuc 3 vs. alkynyl derivatized Fuc 1, or 25 micromolar ManNAc 5 vs. alkynyl derivatized ManNAc 2) in growth medium at 37° C. […] Signal was developed with SuperSignal Chemiluminescent Substrate and detected by exposure to x-ray film. […] Rhodamine gels were analyzed.
(In western blotting, separated proteins are transferred to a membrane and probed.)

For `C#CCCC(=O)N[C@@H]1C(OC(C)=O)O[C@H](COC(C)=O)[C@@H](OC(C)=O)[C@@H]1OC(C)=O` (some centres unmarked) [alkynyl ManNAc 4, 1,3,4,6-tetra-O-acetyl-N-4-pentynoylmannosamine], the “increase of MFI compared with controls” value in series [1] (3 micromolar) is 15 fold. Further, in series [1] (3 days), the “dose dependency of glycan tagging” value is reported as “Dose-dependent labeling”. Moreover, the “fluorescence intensity / cell surface signal compared with control sugar-treated cells” value in series [1] (biotin probe 6/fluorescein-streptavidin) is reported as “specific signal on the cell surface”. For the same compound, the “toxicity (growth rate)” value is “more toxic” in series [2] (above 100 micromolar); “little or no toxicity” in series [2] (between 25 and 50 micromolar). The “toxicity to cells (summary statement)” value in series [2] (at levels required for efficient labeling) is reported as “not toxic”. For the same compound, in series [3], the “fluorescent labeling after reacting with 3-azido-7-hydroxycoumarin probe” value is recorded as “significant fluorescent labeling”. Moreover, the “labeling signal in proteins by Western blot or fluorescence” value in series [4] is “specific biotin-labeling signals”.
